Experimental data: ChEMBL document CHEMBL5226375, “Synthesis and Comprehensive in Vivo Activity Profiling of Olean-12-en-28-ol, 3β-Pentacosanoate in Experimental Autoimmune Encephalomyelitis: A Natural Remyelinating and Anti-Inflammatory Agent” (J Nat Prod, 2023)
The source made the active and inactive calls. The rule behind the calls is not given here.

Legend:
[1] = tested on: Mus musculus; experiment: Anti-inflammatory activity against MOG35-55-induced experimental autoimmune encephalomyelitis C57BL/6 mouse model assessed as fold change in TNF-alpha gene expression in brain at 300 mg/kg/day, ig for 14 days starting from 12th day of immunization by RT-qPCR analysis relative to control; format: functional; conditions: time 14 day
[2] = tested on: Mus musculus; experiment: Anti-inflammatory activity against MOG35-55-induced experimental autoimmune encephalomyelitis C57BL/6 mouse model assessed as methylation of CpG sites of IL13 gene promoter in brain at 600 mg/kg, ig for 14 days starting from 12th day of immunization by PCR analysis (reference value: 57.3 +/-8%); format: functional; conditions: time 14 day
[3] = tested on: Mus musculus; experiment: Anti-inflammatory activity against MOG35-55-induced experimental autoimmune encephalomyelitis C57BL/6 mouse model assessed as reduction in EAE symptoms by measuring reduction in cumulative scores at 600 mg/kg/day, ig for 14 days starting from 12th day of immunization and measured from day 12 to 38 post-immunization; format: functional, organism-based; conditions: time 1-26 day
[4] = tested on: Mus musculus; experiment: Anti-inflammatory activity against MOG35-55-induced experimental autoimmune encephalomyelitis C57BL/6 mouse model assessed as methylation of CpG sites of […] gene promoter in brain at 600 mg/kg, ig for 14 days starting from 12th day of immunization by PCR analysis (reference value: 13.1 +/-8%); format: functional; conditions: time 14 day
[5] = tested on: Mus musculus; experiment: Anti-inflammatory activity against MOG35-55-induced experimental autoimmune encephalomyelitis C57BL/6 mouse model assessed as reduction in serum Th1 cytokine level by measuring reduction in IFNG level at 600 mg/kg/day, ig for 14 days starting from 12th day of immunization by ELISA; format: functional, organism-based; conditions: time 14.0 day
[6] = tested on: Mus musculus; experiment: Anti-inflammatory activity against MOG35-55-induced experimental autoimmune encephalomyelitis C57BL/6 mouse model assessed as fold change in GFAP gene expression in brain at 600 mg/kg/day, ig for 14 days starting from 12th day of immunization by RT-qPCR analysis relative to control; format: functional; conditions: time 14 day
[7] = tested on: Mus musculus; experiment: Anti-inflammatory activity against MOG35-55-induced experimental autoimmune encephalomyelitis C57BL/6 mouse model assessed as fold change in CXCL9 gene expression in brain at 300 mg/kg/day, ig for 14 days starting from 12th day of immunization by RT-qPCR analysis relative to control; format: functional; conditions: time 14 day
[8] = tested on: Mus musculus; experiment: Anti-inflammatory activity against MOG35-55-induced experimental autoimmune encephalomyelitis C57BL/6 mouse model assessed as reduction in EAE symptoms by measuring reduction in paralysis of hind limbs at 300 to 600 mg/kg/day, ig for 14 days starting from 12th day of immunization; format: functional, organism-based; conditions: dose 300-600 mg/kg/day, time 14.0 day
[9] = tested on: Mus musculus; experiment: Anti-inflammatory activity against MOG35-55-induced experimental autoimmune encephalomyelitis C57BL/6 mouse model assessed as fold change in YWHAH gene expression in brain at 300 mg/kg/day, ig for 14 days starting from 12th day of immunization by RT-qPCR analysis relative to control; format: functional; conditions: time 14 day
[10] = tested on: Mus musculus; experiment: Anti-inflammatory activity against MOG35-55-induced experimental autoimmune encephalomyelitis C57BL/6 mouse model assessed as reduction in serum monokines level by measuring reduction in IL-6 level at 600 mg/kg/day, ig for 14 days starting from 12th day of immunization by ELISA; format: functional, organism-based; conditions: time 14.0 day
[11] = tested on: Mus musculus; experiment: Anti-inflammatory activity against MOG35-55-induced experimental autoimmune encephalomyelitis C57BL/6 mouse model assessed as methylation of CpG sites of TGFB1 gene promoter in brain at […], ig for 14 days starting from 12th day of immunization by PCR analysis (reference value: 18.3 +/-4%); format: functional; conditions: time 14 day
[12] = tested on: Mus musculus; experiment: Anti-inflammatory activity against MOG35-55-induced experimental autoimmune encephalomyelitis C57BL/6 mouse model assessed as fold change in H2EB1 (HLA-DRB1) gene expression in brain at 0.3 mg/kg/day, ig for 14 days starting from 12th day of immunization by RT-qPCR analysis relative to control; format: functional; conditions: time 14 day
[13] = tested on: Mus musculus; experiment: Anti-inflammatory activity against MOG35-55-induced experimental autoimmune encephalomyelitis C57BL/6 mouse model assessed as methylation of CpG sites of IL17A gene promoter in brain at […], ig for 14 days starting from 12th day of immunization by PCR analysis (reference value: 58 +/-6%); format: functional; conditions: time 14 day
[14] = tested on: Mus musculus; experiment: Anti-inflammatory activity against MOG35-55-induced experimental autoimmune encephalomyelitis C57BL/6 mouse model assessed as fold change in IL6 gene expression in brain at 0.3 mg/kg/day, ig for 14 days starting from 12th day of immunization by RT-qPCR analysis relative to control; format: functional; conditions: time 14 day
[15] = tested on: Mus musculus; experiment: Anti-inflammatory activity against MOG35-55-induced experimental autoimmune encephalomyelitis C57BL/6 mouse model assessed as fold change in CXCL9 gene expression in brain at 0.15 mg/kg/day, ig for 14 days starting from 12th day of immunization by RT-qPCR analysis relative to control; format: functional; conditions: time 14 day
[16] = tested on: Mus musculus; experiment: Anti-inflammatory activity against MOG35-55-induced experimental autoimmune encephalomyelitis C57BL/6 mouse model assessed as reduction in serum Th1 cytokine level by measuring reduction in TNF-alpha level at 0.3 mg/kg/day, ig for 14 days starting from 12th day of immunization by ELISA; format: functional, organism-based; conditions: time 14.0 day
[17] = tested on: Mus musculus; experiment: Anti-inflammatory activity against MOG35-55-induced experimental autoimmune encephalomyelitis C57BL/6 mouse model assessed as fold change in CD4 gene expression in brain at 0.15 mg/kg/day, ig for 14 days starting from 12th day of immunization by RT-qPCR analysis relative to control; format: functional; conditions: time 14 day
[18] = tested on: Mus musculus; experiment: Anti-inflammatory activity against MOG35-55-induced experimental autoimmune encephalomyelitis C57BL/6 mouse model assessed as fold change in C1S gene expression in brain at 0.3 mg/kg/day, ig for 14 days starting from 12th day of immunization by RT-qPCR analysis relative to control; format: functional; conditions: time 14 day
[19] = tested on: Mus musculus; experiment: Anti-inflammatory activity against MOG35-55-induced experimental autoimmune encephalomyelitis C57BL/6 mouse model assessed as reduction in serum chemokines level by measuring reduction in IL-3 level at 0.3 mg/kg/day, ig for 14 days starting from 12th day of immunization by ELISA; format: functional, organism-based; conditions: time 14.0 day
[20] = tested on: Mus musculus; experiment: Anti-inflammatory activity against MOG35-55-induced experimental autoimmune encephalomyelitis C57BL/6 mouse model assessed as methylation of CpG sites of IL13 gene promoter in brain at […], ig for 14 days starting from 12th day of immunization by PCR analysis (reference value: 57.3 +/-8%); format: functional; conditions: time 14 day
[21] = tested on: Mus musculus; experiment: Anti-inflammatory activity against MOG35-55-induced experimental autoimmune encephalomyelitis C57BL/6 mouse model assessed as proportion of brain infiltrating cells expressing CD45+/CD11b/c high surface markers at […]/day, ig for 14 days starting from 12th day of immunization by flow cytometry (reference value: 87.7%); format: functional; conditions: time 14 day
[22] = tested on: Mus musculus; experiment: Anti-inflammatory activity against MOG35-55-induced experimental autoimmune encephalomyelitis C57BL/6 mouse model assessed as fold change in GFAP gene expression in brain at 0.3 mg/kg/day, ig for 14 days starting from 12th day of immunization by RT-qPCR analysis relative to control; format: functional; conditions: time 14 day
[23] = tested on: Mus musculus; experiment: Anti-inflammatory activity against MOG35-55-induced experimental autoimmune encephalomyelitis C57BL/6 mouse model assessed as fold change in CCL5 gene expression in brain at 0.15 mg/kg/day, ig for 14 days starting from 12th day of immunization by RT-qPCR analysis relative to control; format: functional; conditions: time 14 day

CCCCCCCCCCCCCCCCCCCCCCCCC(=O)O[C@H]1CC[C@]2(C)[C@H]3CC=C4[C@@H]5CC(C)(C)CC[C@]5(CO)CC[C@@]4(C)[C@]3(C)CC[C@H]2C1(C)C
fold change (FC) [1]: 1.76 | Activity [2]: 47.9% | Activity [3]: Active | Activity [4]: 15.2% | Activity [5]: Active | fold change (FC) [6]: 1.79 | fold change (FC) [7]: 1.63 | Activity [8]: Active | fold change (FC) [9]: -1.38 | Activity [10]: Active

CCCCCCCCc1ccc(CCC(N)(CO)CO)cc1 [FINGOLIMOD]
Activity [11]: 35.1% | fold change (FC) [12]: 13.9 | Activity [13]: 58.9% | fold change (FC) [14]: -2.28 | fold change (FC) [15]: 2.86 | Activity [16]: Active | fold change (FC) [17]: 3.06 | fold change (FC) [18]: 2.12 | Activity [19]: Active | Activity [20]: 33.1% | Activity [21]: 46.6% | fold change (FC) [22]: 1.92 | fold change (FC) [23]: 4.46
